# Experimental data published in ChEMBL document CHEMBL1944561, “Discovery and SAR exploration of a novel series of imidazo[4,5-b]pyrazin-2-ones as potent and selective mTOR kinase inhibitors” (Bioorg Med Chem Lett, 2011).
# Legend:
# [1] = molecular target: Tyrosine-protein kinase JAK2 (Homo sapiens) (UniProt O60674); experiment: Inhibition of JAK2 assessed as activity remaining at 10 uM
# [2] = molecular target: 3-phosphoinositide-dependent protein kinase 1 (Homo sapiens) (UniProt O15530); experiment: Inhibition of PDK1 assessed as activity remaining at 10 uM
# 3-phosphoinositide-dependent protein kinase 1 (Homo sapiens), sequence (O15530 whole entry, looked up): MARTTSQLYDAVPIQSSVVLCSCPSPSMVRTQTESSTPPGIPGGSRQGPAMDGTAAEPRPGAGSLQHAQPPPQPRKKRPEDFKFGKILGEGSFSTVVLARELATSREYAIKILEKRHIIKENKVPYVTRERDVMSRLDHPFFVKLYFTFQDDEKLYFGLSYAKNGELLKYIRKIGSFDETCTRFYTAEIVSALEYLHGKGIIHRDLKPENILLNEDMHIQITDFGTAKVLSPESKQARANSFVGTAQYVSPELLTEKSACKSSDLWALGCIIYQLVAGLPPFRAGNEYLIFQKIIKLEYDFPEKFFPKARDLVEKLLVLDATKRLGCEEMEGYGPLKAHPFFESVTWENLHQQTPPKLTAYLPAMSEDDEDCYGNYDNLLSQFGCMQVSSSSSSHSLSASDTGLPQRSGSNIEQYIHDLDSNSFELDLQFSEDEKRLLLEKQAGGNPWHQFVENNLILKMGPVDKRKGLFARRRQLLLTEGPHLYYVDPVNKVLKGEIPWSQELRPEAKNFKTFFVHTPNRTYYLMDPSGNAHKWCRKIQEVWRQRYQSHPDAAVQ
# [3] = molecular target: Tyrosine-protein kinase ZAP-70 (Homo sapiens) (UniProt P43403); experiment: Inhibition of ZAP70 assessed as activity remaining at 10 uM
# [4] = molecular target: Tyrosine-protein kinase Lck (Homo sapiens) (UniProt P06239); experiment: Inhibition of Lck assessed as activity remaining at 10 uM
# [5] = molecular target: Serine/threonine-protein kinase D2 (Homo sapiens) (UniProt Q9BZL6); experiment: Inhibition of PKD2 assessed as activity remaining at 10 uM
# Serine/threonine-protein kinase D2 (Homo sapiens), sequence (Q9BZL6 whole entry): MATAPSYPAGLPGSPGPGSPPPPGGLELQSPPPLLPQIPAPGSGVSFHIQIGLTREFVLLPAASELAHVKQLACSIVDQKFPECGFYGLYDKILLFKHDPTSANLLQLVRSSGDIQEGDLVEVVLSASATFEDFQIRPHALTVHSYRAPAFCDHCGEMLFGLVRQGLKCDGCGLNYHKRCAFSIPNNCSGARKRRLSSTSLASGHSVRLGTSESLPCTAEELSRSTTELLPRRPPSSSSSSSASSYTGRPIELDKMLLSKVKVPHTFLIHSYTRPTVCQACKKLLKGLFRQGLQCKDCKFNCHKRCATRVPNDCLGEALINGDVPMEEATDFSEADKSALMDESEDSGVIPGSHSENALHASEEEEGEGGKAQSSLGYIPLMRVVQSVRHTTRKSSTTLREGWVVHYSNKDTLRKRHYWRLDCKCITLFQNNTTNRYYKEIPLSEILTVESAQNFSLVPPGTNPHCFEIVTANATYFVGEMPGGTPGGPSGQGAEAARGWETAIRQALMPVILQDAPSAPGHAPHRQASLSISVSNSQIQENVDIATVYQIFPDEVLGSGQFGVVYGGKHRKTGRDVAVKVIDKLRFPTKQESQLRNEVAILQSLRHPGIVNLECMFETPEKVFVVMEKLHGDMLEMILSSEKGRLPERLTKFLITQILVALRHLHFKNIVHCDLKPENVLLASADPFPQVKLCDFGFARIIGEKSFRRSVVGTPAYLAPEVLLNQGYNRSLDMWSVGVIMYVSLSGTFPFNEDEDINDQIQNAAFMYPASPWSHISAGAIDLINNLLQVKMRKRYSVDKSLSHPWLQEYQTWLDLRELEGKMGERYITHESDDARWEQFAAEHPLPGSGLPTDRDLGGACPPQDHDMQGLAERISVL
# [6] = molecular target: Macrophage-stimulating protein receptor (Homo sapiens) (UniProt Q04912); experiment: Inhibition of Ron assessed as activity remaining at 10 uM
# [7] = molecular target: Tyrosine-protein kinase Lyn (Homo sapiens) (UniProt P07948); experiment: Inhibition of LYN-A assessed as activity remaining at 10 uM
# [8] = molecular target: Protein kinase C alpha type (Homo sapiens) (UniProt P17252); experiment: Inhibition of PKC-alpha assessed as activity remaining at 10 uM
# [9] = molecular target: Serine/threonine-protein kinase mTOR (Homo sapiens, UniProt P42345); experiment: Inhibition of mTOR assessed as activity remaining at 10 uM
# [10] = molecular target: Tyrosine-protein kinase Yes (Homo sapiens) (UniProt P07947); experiment: Inhibition of Yes assessed as activity remaining at 10 uM
# Tyrosine-protein kinase Yes (Homo sapiens), sequence (P07947 2-543 limits assumed): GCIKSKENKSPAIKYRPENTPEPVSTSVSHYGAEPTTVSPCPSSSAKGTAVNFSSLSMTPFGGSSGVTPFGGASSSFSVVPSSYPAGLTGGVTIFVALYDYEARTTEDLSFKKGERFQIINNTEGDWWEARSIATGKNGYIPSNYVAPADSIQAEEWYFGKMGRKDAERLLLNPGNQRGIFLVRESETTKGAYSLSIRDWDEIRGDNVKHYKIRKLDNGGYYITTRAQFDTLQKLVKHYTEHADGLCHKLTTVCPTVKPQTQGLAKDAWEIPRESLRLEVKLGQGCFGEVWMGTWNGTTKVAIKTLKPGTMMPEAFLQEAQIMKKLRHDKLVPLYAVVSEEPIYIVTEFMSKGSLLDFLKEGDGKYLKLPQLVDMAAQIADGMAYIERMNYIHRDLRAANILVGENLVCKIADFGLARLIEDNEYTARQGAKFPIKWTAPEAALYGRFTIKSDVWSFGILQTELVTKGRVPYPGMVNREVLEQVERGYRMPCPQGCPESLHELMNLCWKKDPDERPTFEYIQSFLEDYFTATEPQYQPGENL
# [11] = molecular target: Serine/threonine-protein kinase PLK1 (Homo sapiens) (UniProt P53350); experiment: Inhibition of Plk1 assessed as activity remaining at 10 uM
# [12] = molecular target: T1, Tyrosine-protein kinase ITK/TSK (Homo sapiens) (UniProt Q08881); experiment: Inhibition of Itk assessed as activity remaining at 10 uM
# T1 sequence (whole entry): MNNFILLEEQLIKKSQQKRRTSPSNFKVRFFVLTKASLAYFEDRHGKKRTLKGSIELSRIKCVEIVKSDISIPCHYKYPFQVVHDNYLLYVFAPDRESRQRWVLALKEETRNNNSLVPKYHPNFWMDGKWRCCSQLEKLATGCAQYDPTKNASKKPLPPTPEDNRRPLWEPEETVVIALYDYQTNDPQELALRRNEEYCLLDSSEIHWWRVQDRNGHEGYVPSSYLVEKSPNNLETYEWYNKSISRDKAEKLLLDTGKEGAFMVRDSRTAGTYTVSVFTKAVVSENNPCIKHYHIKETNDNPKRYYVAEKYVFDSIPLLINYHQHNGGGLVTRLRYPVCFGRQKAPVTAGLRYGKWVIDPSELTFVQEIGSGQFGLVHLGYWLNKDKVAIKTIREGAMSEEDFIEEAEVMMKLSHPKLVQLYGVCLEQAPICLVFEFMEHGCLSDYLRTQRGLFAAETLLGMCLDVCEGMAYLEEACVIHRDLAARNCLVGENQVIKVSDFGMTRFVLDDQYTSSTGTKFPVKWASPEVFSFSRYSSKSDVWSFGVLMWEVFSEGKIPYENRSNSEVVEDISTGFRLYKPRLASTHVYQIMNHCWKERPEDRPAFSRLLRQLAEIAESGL
# [13] = molecular target: MAP kinase-activated protein kinase 3 (Homo sapiens) (UniProt Q16644); experiment: Inhibition of MAPKAP-K3 assessed as activity remaining at 10 uM
# MAP kinase-activated protein kinase 3 (Homo sapiens), sequence (Q16644 whole entry, looked up): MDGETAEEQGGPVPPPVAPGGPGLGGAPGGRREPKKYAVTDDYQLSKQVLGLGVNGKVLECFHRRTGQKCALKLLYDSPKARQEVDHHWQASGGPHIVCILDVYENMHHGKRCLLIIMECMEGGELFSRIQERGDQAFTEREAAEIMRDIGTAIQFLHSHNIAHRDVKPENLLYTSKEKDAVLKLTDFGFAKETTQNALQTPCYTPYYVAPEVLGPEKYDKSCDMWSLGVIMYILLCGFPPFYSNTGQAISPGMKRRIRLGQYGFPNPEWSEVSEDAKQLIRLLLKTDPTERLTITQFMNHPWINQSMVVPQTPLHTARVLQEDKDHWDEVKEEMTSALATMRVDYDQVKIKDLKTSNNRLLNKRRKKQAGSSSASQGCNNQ
# [14] = molecular target: Tyrosine-protein kinase Fyn (Homo sapiens) (UniProt P06241); experiment: Inhibition of Fyn assessed as activity remaining at 10 uM
# Tyrosine-protein kinase Fyn (Homo sapiens), sequence (P06241 2-537 limits assumed): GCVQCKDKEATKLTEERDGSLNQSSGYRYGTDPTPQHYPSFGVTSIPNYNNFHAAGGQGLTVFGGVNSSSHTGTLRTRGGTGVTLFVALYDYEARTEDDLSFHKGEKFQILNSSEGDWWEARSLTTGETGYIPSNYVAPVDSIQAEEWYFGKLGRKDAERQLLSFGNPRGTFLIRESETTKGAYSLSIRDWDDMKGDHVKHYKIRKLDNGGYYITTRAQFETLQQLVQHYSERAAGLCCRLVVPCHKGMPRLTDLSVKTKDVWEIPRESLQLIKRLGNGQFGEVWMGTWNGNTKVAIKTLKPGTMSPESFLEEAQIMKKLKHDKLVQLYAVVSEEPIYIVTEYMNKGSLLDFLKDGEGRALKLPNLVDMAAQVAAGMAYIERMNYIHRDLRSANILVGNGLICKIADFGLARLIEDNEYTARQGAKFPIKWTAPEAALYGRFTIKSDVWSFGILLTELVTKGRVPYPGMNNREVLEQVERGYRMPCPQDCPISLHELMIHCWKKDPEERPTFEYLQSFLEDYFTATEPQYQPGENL
# [15] = molecular target: Macrophage colony-stimulating factor 1 receptor (Homo sapiens) (UniProt P07333); experiment: Inhibition of Fms assessed as activity remaining at 10 uM
# Macrophage colony-stimulating factor 1 receptor (Homo sapiens), sequence (P07333 whole entry): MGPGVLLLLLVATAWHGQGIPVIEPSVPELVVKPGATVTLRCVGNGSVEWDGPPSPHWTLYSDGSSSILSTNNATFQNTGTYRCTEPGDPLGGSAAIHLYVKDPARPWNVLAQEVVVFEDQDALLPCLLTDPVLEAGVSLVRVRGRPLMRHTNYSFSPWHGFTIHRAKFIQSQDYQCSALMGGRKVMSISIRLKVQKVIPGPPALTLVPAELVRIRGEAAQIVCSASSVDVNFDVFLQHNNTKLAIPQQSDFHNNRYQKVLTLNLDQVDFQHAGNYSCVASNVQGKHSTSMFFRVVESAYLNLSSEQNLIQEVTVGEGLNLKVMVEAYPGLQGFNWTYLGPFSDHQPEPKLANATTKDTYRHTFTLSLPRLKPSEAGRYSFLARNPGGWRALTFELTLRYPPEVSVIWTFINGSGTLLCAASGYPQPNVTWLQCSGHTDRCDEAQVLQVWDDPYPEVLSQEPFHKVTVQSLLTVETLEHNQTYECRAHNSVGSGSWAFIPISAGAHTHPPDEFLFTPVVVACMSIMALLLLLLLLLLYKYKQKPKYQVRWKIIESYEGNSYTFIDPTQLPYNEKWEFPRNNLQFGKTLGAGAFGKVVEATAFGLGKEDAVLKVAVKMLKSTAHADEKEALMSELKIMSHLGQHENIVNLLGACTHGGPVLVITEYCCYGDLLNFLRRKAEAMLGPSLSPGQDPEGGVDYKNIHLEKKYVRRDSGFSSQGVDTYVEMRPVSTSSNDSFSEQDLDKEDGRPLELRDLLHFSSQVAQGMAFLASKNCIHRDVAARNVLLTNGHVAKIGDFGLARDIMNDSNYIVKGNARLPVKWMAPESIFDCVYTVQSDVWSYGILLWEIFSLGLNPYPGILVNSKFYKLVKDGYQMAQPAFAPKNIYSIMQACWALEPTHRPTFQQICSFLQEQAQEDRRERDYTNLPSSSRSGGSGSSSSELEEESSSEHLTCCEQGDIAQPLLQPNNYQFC
# [16] = molecular target: Glycogen synthase kinase-3 alpha (Homo sapiens, UniProt P49840); experiment: Inhibition of GSK3alpha
# Glycogen synthase kinase-3 alpha, sequence (P49840 whole entry): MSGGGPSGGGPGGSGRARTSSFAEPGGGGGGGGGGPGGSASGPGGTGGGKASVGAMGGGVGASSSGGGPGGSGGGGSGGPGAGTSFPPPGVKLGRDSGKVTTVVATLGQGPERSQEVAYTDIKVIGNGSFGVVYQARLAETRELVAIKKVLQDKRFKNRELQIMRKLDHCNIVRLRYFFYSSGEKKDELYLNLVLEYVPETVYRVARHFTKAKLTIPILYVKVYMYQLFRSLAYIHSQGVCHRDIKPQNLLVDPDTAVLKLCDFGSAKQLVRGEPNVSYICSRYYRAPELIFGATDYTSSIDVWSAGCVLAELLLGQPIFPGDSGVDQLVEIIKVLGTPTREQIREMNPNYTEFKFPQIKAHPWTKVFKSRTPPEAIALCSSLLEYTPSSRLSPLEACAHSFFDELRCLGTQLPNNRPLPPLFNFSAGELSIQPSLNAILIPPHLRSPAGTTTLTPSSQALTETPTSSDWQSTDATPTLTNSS
# [17] = Metabolic stability in rat hepatocytes assessed as compound remaining after 60 mins; type: ADME, cell-based, Hepatocyte; settings: read-out: Stability
Structure (SMILES),Activity [1],Activity [2],Activity [3],Activity [4],Activity [5],Activity [6],Activity [7],Activity [8],Activity [9],Activity [10],Activity [11],Activity [12],Activity [13],Activity [14],Activity [15],IC50 [16],remaining at 1 h [17]
O=c1[nH]c2ncc(-c3ccc(-c4nc[nH]n4)cc3)nc2n1CC1CCOCC1,98%,91%,99%,86%,94%,95%,96%,86%,0%,87%,95%,99%,94%,102%,37%,,
O=c1[nH]c2ncc(-c3ccc4[nH]cnc4c3)nc2n1CC1CCCCC1,,65%,,,,,,82%,,73%,,96%,,67%,23%,990 nM,
CC(C)(O)c1ccc(-c2cnc3[nH]c(=O)n(CC4CCCCC4)c3n2)cc1,,92%,,,,,,83%,,74%,,90%,,73%,26%,600 nM,65%
